# Assay results reported in PMC5114172 (Journal of applied toxicology : JAT, 2016).
# Read-outs that look alike come from different tables or passages of the source.
# Legend:
# [1] = test system: MD-PBMCs; assay: IL-1β secretion; assay type: cell-based, human
# [2] = test system: highly purified human NKs; conditions: NK cells, ref Brown and Whalen, 2015, cited from earlier work
# [3] = test system: monocyte-depleted PBMCs; conditions: MD-PBMCs, ref Brown and Whalen, 2015, cited from earlier work
structure (smiles),measurement,setting,value
"CC(C)(C)c1ccc(S(=O)(=O)/C=C/C#N)cc1 [BAY 11-7085, reference compound]",Interleukin 1 beta secreted,"[1]; donor F244, 24 h, BAY 11-7085 alone (0 DBT)",836 ± 8 pg/mL
same,Interleukin 1 beta secreted,"[1]; donor F245, 24 h, BAY 11-7085 alone (0 DBT)",536 ± 51 pg/mL
same,Interleukin 1 beta secreted,"[1]; donor F333, 24 h, BAY 11-7085 alone (0 DBT)",2039 ± 62 pg/mL
same,Interleukin 1 beta secreted,"[1]; donor F334, 24 h, BAY 11-7085 alone (0 DBT)",703 ± 70 pg/mL
same,effect on baseline IL-1β secretion,[1]; inhibitor alone,varying effects
"CC(=O)N[C@@H](Cc1ccc(O)cc1)C(=O)N[C@H](C(=O)N[C@@H](C)C(=O)N[C@@H](CC(=O)O)C(=O)CCl)C(C)C [Caspase-1 Inhibitor II, reference compound]",effect on baseline IL-1β production,"[1]; 50 μM, cells from each donor, p<0.05",significantly decreased
same,Interleukin 1 beta secreted,"[1]; donor F240, 24 h, Caspase-1 inhibitor II 50 μM alone (0 DBT)",237 ± 19 pg/mL
same,Interleukin 1 beta secreted,"[1]; donor F242, 24 h, Caspase-1 inhibitor II 50 μM alone (0 DBT)",460 ± 15 pg/mL
same,Interleukin 1 beta secreted,"[1]; donor F244, 24 h, Caspase-1 inhibitor II 50 μM alone (0 DBT)",233 ± 11 pg/mL
same,Interleukin 1 beta secreted,"[1]; donor F245, 24 h, Caspase-1 inhibitor II 50 μM alone (0 DBT)",150 ± 8 pg/mL
same,Interleukin 1 beta secreted,"[1]; donor F254, 24 h, Caspase-1 inhibitor II 50 μM alone (0 DBT)",39 ± 4 pg/mL
"Oc1ccc(-c2nc(-c3ccncc3)c(-c3ccc(F)cc3)[nH]2)cc1 [SB202190, reference compound]",effect on baseline secretion,"[1]; 3 of the 4 donors, in 1 donor it greatly increased secretion",significantly decreased
same,Interleukin 1 beta secreted,"[1]; donor F247, 24 h, SB202190 alone (0 DBT)",1613 ± 141 pg/mL
same,Interleukin 1 beta secreted,"[1]; donor F262, 24 h, SB202190 alone (0 DBT)",149 ± 41 pg/mL
same,Interleukin 1 beta secreted,"[1]; donor F372, 24 h, SB202190 alone (0 DBT)",36 ± 3 pg/mL
same,Interleukin 1 beta secreted,"[1]; donor F385, 24 h, SB202190 alone (0 DBT)",357 ± 61 pg/mL
"CCC[CH2][Sn]([CH2]CCC)[CH2]CCC [TBT, tributyltin]",fold increase in IL-1β secretion,"[2]; donor KB169, 50 nM TBT",7.7 fold
same,fold increase in IL-1β secretion,"[2]; donor KB169, 100 nM TBT",6.3 fold
same,fold increase in IL-1β secretion,"[3]; donor F142, 24 h, 50 nM TBT",2.1 fold
same,fold increase in IL-1β secretion,"[3]; donor F142, 24 h, 100 nM TBT",1.8 fold
same,fold increase in IL-1β secretion,"[3]; donor F145, 24 h, 50 nM TBT",1.8 fold
same,fold increase in IL-1β secretion,"[3]; donor F145, 24 h, 100 nM TBT",1.5 fold
same,fold increase in IL-1β secretion,"[3]; third common donor (F152), 24 h, 50 nM TBT",11 fold
"N#CC(=C(/N)Sc1ccccc1N)/C(C#N)=C(/N)Sc1ccccc1N [U0126, reference compound]",Interleukin 1 beta secreted,"[1]; donor F240, 24 h, U0126 50 μM alone (0 DBT)",1756 ± 54 pg/mL
same,Interleukin 1 beta secreted,"[1]; donor F242, 24 h, U0126 50 μM alone (0 DBT)",479 ± 29 pg/mL
same,Interleukin 1 beta secreted,"[1]; donor F244, 24 h, U0126 50 μM alone (0 DBT)",119 ± 28 pg/mL
same,Interleukin 1 beta secreted,"[1]; donor F245, 24 h, U0126 50 μM alone (0 DBT)",255 ± 25 pg/mL
